# Assay results taken from patent publication US10660877B2 (BRISTOL-MYERS SQUIBB COMPANY, priority 2016, dated 2020).
# Read-outs that look alike come from different tables or passages of the source.
# Experiments:
# human TLR7 = human TLR7 (Homo sapiens (Human), UniProt Q9NYK1); experiment: TLR7 inhibition reporter assay (HEK-Blue cells, SEAP reporter, gardiquimod stimulation); type: cell-based
# human TLR8 = human TLR8 (Homo sapiens (Human), UniProt Q9NR97); experiment: TLR8 inhibition reporter assay (HEK-Blue cells, SEAP reporter, R848 stimulation);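 also: compounds tested from 0.05 nM to 50 µM, 22 h at 37 °C, SEAP measured with HEK-Blue Detection, inhibition relative to agonist plus DMSO versus a known inhibitor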
# human TLR9 = human TLR9 (Homo sapiens (Human), UniProt Q9NR96); experiment: TLR9 inhibition reporter assay (HEK-Blue cells, SEAP reporter, ODN2006 stimulation);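 also: compounds tested over 0.05 nM to 50 µM, 22 h incubation, inhibition taken as SEAP signal drop from agonist plus DMSO wells toward a known inhibitor control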
# [1] = HEK-Blue cells overexpressing human TLR7, gardiquimod 7.5 μM
# [2] = read-out: TLR8 IC50, HEK-Blue cells overexpressing human TLR8, R848 15.9 μM
# [3] = read-out: TLR9 IC50, HEK-Blue cells overexpressing human TLR9, ODN2006 5 nM
# [4] = HEK-Blue cells, gardiquimod 7.5 μM
# [5] = read-out: TLR8 IC50, HEK-Blue cells, R848 15.9 μM
# [6] = read-out: TLR9 IC50, HEK-Blue cells, ODN2006 5 nM
# Sequence of human TLR7 (Q9NYK1 27-1049): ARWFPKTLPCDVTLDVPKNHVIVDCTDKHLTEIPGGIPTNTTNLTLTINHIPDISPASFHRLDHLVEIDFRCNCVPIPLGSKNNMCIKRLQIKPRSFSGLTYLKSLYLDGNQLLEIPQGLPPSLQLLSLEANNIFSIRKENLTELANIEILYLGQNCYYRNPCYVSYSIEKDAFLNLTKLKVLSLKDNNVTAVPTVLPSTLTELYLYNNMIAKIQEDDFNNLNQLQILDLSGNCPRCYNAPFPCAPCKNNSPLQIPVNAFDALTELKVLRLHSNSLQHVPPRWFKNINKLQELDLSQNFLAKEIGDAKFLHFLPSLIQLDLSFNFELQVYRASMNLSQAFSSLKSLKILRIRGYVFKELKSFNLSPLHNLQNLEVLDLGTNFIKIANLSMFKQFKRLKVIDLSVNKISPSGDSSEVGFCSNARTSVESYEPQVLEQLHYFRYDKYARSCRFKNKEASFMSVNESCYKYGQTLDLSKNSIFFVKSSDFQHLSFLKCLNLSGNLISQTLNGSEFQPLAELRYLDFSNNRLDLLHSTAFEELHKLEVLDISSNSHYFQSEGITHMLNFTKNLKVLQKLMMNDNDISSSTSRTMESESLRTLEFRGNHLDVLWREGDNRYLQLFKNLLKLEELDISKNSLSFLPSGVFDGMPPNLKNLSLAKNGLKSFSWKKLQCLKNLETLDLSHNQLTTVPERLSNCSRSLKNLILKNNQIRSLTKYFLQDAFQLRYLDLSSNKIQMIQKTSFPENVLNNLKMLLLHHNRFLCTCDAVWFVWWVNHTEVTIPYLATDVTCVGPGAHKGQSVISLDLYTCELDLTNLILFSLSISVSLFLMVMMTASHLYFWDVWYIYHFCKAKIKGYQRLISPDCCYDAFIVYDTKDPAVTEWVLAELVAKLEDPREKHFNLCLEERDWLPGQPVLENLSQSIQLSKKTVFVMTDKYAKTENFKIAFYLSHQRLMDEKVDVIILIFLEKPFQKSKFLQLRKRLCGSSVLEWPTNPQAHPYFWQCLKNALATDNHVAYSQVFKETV
# Sequence of human TLR9 (Q9NR96 26-1032): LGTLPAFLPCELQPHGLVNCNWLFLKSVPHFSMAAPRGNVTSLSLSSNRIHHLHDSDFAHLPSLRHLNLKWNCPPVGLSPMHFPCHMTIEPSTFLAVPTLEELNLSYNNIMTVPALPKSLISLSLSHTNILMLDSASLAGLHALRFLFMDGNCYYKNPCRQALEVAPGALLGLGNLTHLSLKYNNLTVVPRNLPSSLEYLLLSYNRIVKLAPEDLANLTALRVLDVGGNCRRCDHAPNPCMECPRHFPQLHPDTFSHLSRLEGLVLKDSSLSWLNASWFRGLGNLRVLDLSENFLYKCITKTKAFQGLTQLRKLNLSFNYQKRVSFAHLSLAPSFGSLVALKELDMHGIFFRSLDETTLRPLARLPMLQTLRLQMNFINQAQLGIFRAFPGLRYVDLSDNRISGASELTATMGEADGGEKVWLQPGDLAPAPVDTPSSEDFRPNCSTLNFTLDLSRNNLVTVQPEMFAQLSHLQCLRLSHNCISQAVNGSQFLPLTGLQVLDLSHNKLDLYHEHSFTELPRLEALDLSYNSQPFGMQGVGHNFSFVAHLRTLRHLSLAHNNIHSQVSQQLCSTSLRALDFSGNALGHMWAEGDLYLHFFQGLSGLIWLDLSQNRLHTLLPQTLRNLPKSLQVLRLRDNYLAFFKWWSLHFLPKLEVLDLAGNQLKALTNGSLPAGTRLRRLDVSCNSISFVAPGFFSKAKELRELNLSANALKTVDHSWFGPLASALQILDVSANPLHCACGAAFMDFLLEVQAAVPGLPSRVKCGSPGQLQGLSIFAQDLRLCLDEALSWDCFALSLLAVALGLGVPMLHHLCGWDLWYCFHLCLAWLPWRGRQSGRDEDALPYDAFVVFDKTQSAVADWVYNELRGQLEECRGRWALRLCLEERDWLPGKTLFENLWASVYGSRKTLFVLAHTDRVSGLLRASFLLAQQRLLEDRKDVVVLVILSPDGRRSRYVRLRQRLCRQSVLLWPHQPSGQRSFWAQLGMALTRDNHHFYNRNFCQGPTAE
# Sequence of human TLR8 (Q9NR97 27-1041): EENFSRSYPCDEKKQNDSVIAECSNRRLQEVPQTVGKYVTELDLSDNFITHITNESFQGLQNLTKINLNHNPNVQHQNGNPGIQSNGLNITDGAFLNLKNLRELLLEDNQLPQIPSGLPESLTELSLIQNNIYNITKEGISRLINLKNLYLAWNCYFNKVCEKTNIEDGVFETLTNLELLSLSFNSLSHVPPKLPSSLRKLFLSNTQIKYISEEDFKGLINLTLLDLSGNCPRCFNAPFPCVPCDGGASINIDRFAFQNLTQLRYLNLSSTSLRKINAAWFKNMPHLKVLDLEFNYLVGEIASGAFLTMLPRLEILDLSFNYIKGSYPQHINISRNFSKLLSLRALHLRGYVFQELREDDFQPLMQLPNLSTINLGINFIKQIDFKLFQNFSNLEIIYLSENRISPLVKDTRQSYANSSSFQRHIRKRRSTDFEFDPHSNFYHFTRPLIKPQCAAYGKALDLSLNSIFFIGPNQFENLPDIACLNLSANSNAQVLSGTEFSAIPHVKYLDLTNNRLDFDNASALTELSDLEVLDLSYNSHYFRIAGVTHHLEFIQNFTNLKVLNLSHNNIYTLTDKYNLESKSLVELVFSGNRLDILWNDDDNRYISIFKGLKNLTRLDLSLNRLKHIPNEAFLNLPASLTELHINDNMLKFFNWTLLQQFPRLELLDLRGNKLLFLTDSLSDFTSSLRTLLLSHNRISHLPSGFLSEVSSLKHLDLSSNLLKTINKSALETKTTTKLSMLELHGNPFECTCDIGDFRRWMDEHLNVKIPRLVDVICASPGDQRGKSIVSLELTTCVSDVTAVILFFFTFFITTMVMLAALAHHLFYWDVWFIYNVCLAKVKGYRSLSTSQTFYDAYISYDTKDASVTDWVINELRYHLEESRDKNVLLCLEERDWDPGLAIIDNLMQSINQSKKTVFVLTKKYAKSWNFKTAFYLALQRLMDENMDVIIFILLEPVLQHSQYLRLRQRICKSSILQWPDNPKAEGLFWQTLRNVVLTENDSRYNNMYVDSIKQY
SMILES,IC50 (human TLR7; [1]) [nM],IC50 (human TLR8; [2]) [nM],IC50 (human TLR9; [3]) [nM],IC50 (human TLR7; [4]) [nM],IC50 (human TLR8; [5]) [nM],IC50 (human TLR9; [6]) [nM],"IC50 (human TLR8; TLR8 IC50, HEK-Blue cells overexpressing human TLR8, R848 15.9 μM) [nM]","IC50 (human TLR9; TLR9 IC50, HEK-Blue cells overexpressing human TLR9, ODN2006 5 nM) [nM]"
"Cc1cc(-c2[nH]c3ccc(C4CCN(C(=O)CN5CCC(F)(F)CC5)CC4)cc3c2C(C)C)cc(C)n1 [Example 362, 2-(4,4-difluoropiperidin-1-yl)-1-(4-(2-(2,6-dimethylpyridin-4-yl)-3-isopropyl-1H-indol-5-yl)piperidin-1-yl)ethan-1-one]",33.6,55.1,16100,,,,,
"Cc1cc(-c2[nH]c3ccc(C4CCN(CC(=O)N(C)C)CC4)cc3c2CC(F)F)cc(C)n1 [Example 531, 2-(4-(3-(2,2-difluoroethyl)-2-(2,6-dimethylpyridin-4-yl)-1H-indol-5-yl)piperidin-1-yl)-N,N-dimethylacetamide]",15.7,63.9,221,,,,,
"Cc1cc(-c2[nH]c3ccc(C4CCNCC4)cc3c2CC(F)F)ccn1 [Example 84, 3-(2,2-difluoroethyl)-2-(2-methylpyridin-4-yl)-5-(piperidin-4-yl)-1H-indole]",75.9,39.4,464,,,,,
"Cc1cc(-c2[nH]c3ccc(C4CCN(C(=O)CN(C)C5CCCCC5)CC4)cc3c2C(C)C)cc(C)n1 [Example 384, 2-(cyclohexyl (methyl)amino)-1-(4-(2-(2,6-dimethylpyridin-4-yl)-3-isopropyl-1H-indol-5-yl)piperidin-1-yl)ethan-1-one]",14.4,57,630,,,,,
"Cc1cc(-c2[nH]c3cc(F)c(C4CCN(CC(=O)N(C)C)CC4)cc3c2C(C)C)c(F)cn1 [Example 836, 2-(4-(6-fluoro-2-(5-fluoro-2-methylpyridin-4-yl)-3-isopropyl-1H-indol-5-yl)piperidin-1-yl)-N,N-dimethylacetamide]",,,,3.9,11.8,4730,,
"CCC(CC)NC(=O)CN1CCC(c2ccc3[nH]c(-c4cc(C)nc(C)c4)c(C(C)C)c3c2)CC1 [Example 220, 2-(4-(2-(2,6-dimethylpyridin-4-yl)-3-isopropyl-1H-indol-5-yl)piperidin-1-yl)-N-(pentan-3-yl)acetamide]",13.9,36,1300,,,,,
"COc1cc(-c2[nH]c3ccc(C4CCN(C5CCN(C6CCCC6)CC5)CC4)cc3c2C(C)C)ccn1 [Example 802, 5-(1′-cyclopentyl-[1,4′-bipiperidin]-4-yl)-3-isopropyl-2-(2-methoxypyridin-4-yl)-1H-indole]",389,99.3,487,,,,,
"CCc1c(-c2cc(C)nc(C)c2)[nH]c2ccc(C3CCN(C(=O)C4CC(=O)N(C)C4)CC3)cc12 (stereo not drawn) [Example 530, 4-(4-(2-(2,6-dimethylpyridin-4-yl)-3-ethyl-1H-indol-5-yl)piperidine-1-carbonyl)-1-methylpyrrolidin-2-one]",52.2,398,5270,,,,,
"CC(C)c1c(-c2ccnc(N)c2)[nH]c2ccc(C3CCN(C(=O)C4CCNCC4)CC3)cc12 [Example 819, (4-(2-(2-aminopyridin-4-yl)-3-isopropyl-1H-indol-5-yl)piperidin-1-yl)(piperidin-4-yl)methanone]",,,,415,588,712,,
"Cc1cc(-c2[nH]c3ccc(C4CCN(Cc5nnc(C6CC6)o5)CC4)cc3c2C(C)C)c(F)cn1 [Example 698, 2-cyclopropyl-5-((4-(2-(5-fluoro-2-methylpyridin-4-yl)-3-isopropyl-1H-indol-5-yl)piperidin-1-yl)methyl)-1,3,4-oxadiazole]",54.2,37.6,12400,,,,,
"Cc1cc(-c2[nH]c3ccc(C4CCN(CC(O)C(C)C)CC4)cc3c2C(C)C)cc(C)n1 (stereo not drawn) [Example 855, 1-(4-(2-(2,6-dimethylpyridin-4-yl)-3-isopropyl-1H-indol-5-yl)piperidin-1-yl)-3-methylbutan-2-ol]",,,,21.1,1.5,3300,,
"Cc1cc(-c2[nH]c3ccc(C4CCN(C5COC5)CC4)cc3c2C(C)C)c(F)cn1 [Example 721, 2-(5-fluoro-2-methylpyridin-4-yl)-3-isopropyl-5-(1-(oxetan-3-yl)piperidin-4-yl)-1H-indole]",13.8,7.4,19800,,,,,
"CCc1c(-c2ccnc(NC(C)=O)c2)[nH]c2ccc(C3CCN(C4CCN(CC(C)C)CC4)CC3)cc12 [Example 766, N-(4-(3-ethyl-5-(1′-isobutyl-[1,4′-bipiperidin]-4-yl)-1H-indol-2-yl)pyridin-2-yl)acetamide]",3980,245,83,,,,,
"CNCCN1CCC(c2ccc3[nH]c(-c4ccnc(C#N)c4)c(C)c3c2)CC1 [Example 755, 4-(3-methyl-5-(1-(2-(methylamino)ethyl)piperidin-4-yl)-1H-indol-2-yl)picolinonitrile]",2650,86.6,599,,,,,
"Cc1cc(-c2[nH]c3ccc(C4CCN(Cc5cncs5)CC4)cc3c2C(C)C)c(C)cn1 [Example 687, 5-((4-(2-(2,5-dimethylpyridin-4-yl)-3-isopropyl-1H-indol-5-yl)piperidin-1-yl)methyl)thiazole]",25.6,1.8,4920,,,,,
"Cc1cc(-c2[nH]c3ccc(C4CCNCC4)cc3c2C(C)(C)C)ccn1 [Example 86, 3-(tert-butyl)-2-(2-methylpyridin-4-yl)-5-(piperidin-4-yl)-1H-indole]",23600,> 50000,2550,,,,,

# Continued by falling IC50 (human TLR7; [1]), values first:
IC50 (human TLR7; [1]) [nM],IC50 (human TLR8; [2]) [nM],IC50 (human TLR9; [3]) [nM],IC50 (human TLR7; [4]) [nM],IC50 (human TLR8; [5]) [nM],IC50 (human TLR9; [6]) [nM],"IC50 (human TLR8; TLR8 IC50, HEK-Blue cells overexpressing human TLR8, R848 15.9 μM) [nM]","IC50 (human TLR9; TLR9 IC50, HEK-Blue cells overexpressing human TLR9, ODN2006 5 nM) [nM]",SMILES
13.3,66.1,17200,,,,,,"Cc1cc(-c2[nH]c3ccc(C4CCN(C(=O)Cn5cnnn5)CC4)cc3c2C(C)C)cc(C)n1 [Example 165, 1-(4-(2-(2,6-dimethylpyridin-4-yl)-3-isopropyl-1H-indol-5-yl)piperidin-1-yl)-2-(1H-tetrazol-1-yl)ethan-1-one]"
12.1,190,1460,,,,,,"CC(C)c1c(-c2cc(C3CC3)ncc2F)[nH]c2ccc(C3CCN(C(=O)CN(C)C)CC3)cc12 [Example 516, 1-(4-(2-(2-cyclopropyl-5-fluoropyridin-4-yl)-3-isopropyl-1H-indol-5-yl)piperidin-1-yl)-2-(dimethylamino)ethan-1-one]"
11.4,24.9,1720,,,,,,"CCC(C)NC(=O)CN1CCC(c2ccc3[nH]c(-c4cc(C)nc(C)c4)c(C(C)C)c3c2)CC1 (stereo not drawn) [Example 234, N-(sec-butyl)-2-(4-(2-(2,6-dimethylpyridin-4-yl)-3-isopropyl-1H-indol-5-yl)piperidin-1-yl)acetamide]"
11.1,42.7,1100,,,,,,"Cc1cc(-c2[nH]c3ccc(C4CCN(C(=O)CN(C)C)CC4)cc3c2C(C)C)cc(C2CC2)n1 [Example 506, 1-(4-(2-(2-cyclopropyl-6-methylpyridin-4-yl)-3-isopropyl-1H-indol-5-yl)piperidin-1-yl)-2-(dimethylamino)ethan-1-one]"
8.8,8.6,695,,,,,,"CNCC(=O)N1CCC(c2ccc3[nH]c(-c4ccnc(C)c4)c(C(C)C)c3c2)CC1 [Example 510, 1-(4-(3-isopropyl-2-(2-methylpyridin-4-yl)-1H-indol-5-yl)piperidin-1-yl)-2-(methylamino)ethan-1-one]"
6.9,20.4,654,,,,,,"Cc1cc(-c2[nH]c3ccc(C4CCN(CC(=O)NCC5(C)CC5)CC4)cc3c2C(C)C)cc(C)n1 [Example 255, 2-(4-(2-(2,6-dimethylpyridin-4-yl)-3-isopropyl-1H-indol-5-yl)piperidin-1-yl)-N-((1-methylcyclopropyl)methyl)acetamide]"
6.9,96.1,5440,,,,,,"Cc1cc(-c2[nH]c3ccc(C4CCN(C(=O)c5c(C)noc5C)CC4)cc3c2C(C)C)cc(C)n1 [Example 119, (3,5-dimethylisoxazol-4-yl)(4-(2-(2,6-dimethylpyridin-4-yl)-3-isopropyl-1H-indol-5-yl)piperidin-1-yl) methanone]"
5.4,27.3,549,,,,,,"Cc1cc(-c2[nH]c3ccc(C4CCN(C(=O)C5CCNCC5)CC4)cc3c2C(C)C)cc(C)n1 [Example 178, (4-(2-(2,6-dimethylpyridin-4-yl)-3-isopropyl-1H-indol-5-yl)piperidin-1-yl)(piperidin-4-yl)methanone]"
4.7,27.6,2110,,,,,,"Cc1cc(-c2[nH]c3ccc(C4CCN(C(=O)CCN(C)C5COC5)CC4)cc3c2C(C)C)cc(C)n1 [Example 589, 1-(4-(2-(2,6-dimethylpyridin-4-yl)-3-isopropyl-1H-indol-5-yl)piperidin-1-yl)-3-(methyl(oxetan-3-yl)amino)propan-1-one]"
3,6.1,350,,,,,,"Cc1cc(-c2[nH]c3ccc(C4CCN(CC(=O)NC5CCOCC5)CC4)cc3c2C(C)C)cc(C)n1 [Example 280, 2-(4-(2-(2,6-dimethylpyridin-4-yl)-3-isopropyl-1H-indol-5-yl)piperidin-1-yl)-N-(tetrahydro-2H-pyran-4-yl)acetamide]"
1.1,,,,,,13.9,849,"Cc1cc(-c2[nH]c3ccc(C4CCNCC4(F)F)cc3c2C(C)C)cc(C)n1 (single isomer, unassigned) [Example 489A, 5-(3,3-difluoropiperidin-4-yl)-2-(2,6-dimethylpyridin-4-yl)-3-isopropyl-1H-indole]"
